{"source": "patent US11807644B2", "about": "(PMV Pharmaceuticals, Inc., priority 2020, dated 2023)", "data": [{"molecular_target": "T1, recombinant His-tag Y220C p53 DBD protein (Homo sapiens, UniProt P04637, Y220C)", "T1 construct": "recombinant His-tag Y220C p53 DBD protein (amino acids #˜94-312)", "assay": "In vitro DNA binding activity assay (TR-FRET): binding of His-tag Y220C p53 DBD to biotin-labeled consensus DNA", "format": "biochemical", "conditions": "SC150 = concentration to increase DNA binding by […], His-tag Y220C p53 DBD, biotin-labeled consensus DNA", "values": [{"compound": "CN(Cc1nc(-c2cc3c(N[C@@H]4CCNC[C@@H]4F)cccc3n2CC(F)(F)F)no1)c1cn[nH]c1", "note": "(racemic) [Compound 191B, (+/−)-N-[(3R,4S)-3-fluoropiperidin-4-yl]-2-(5-{[methyl(1H-pyrazol-4-yl)amino]methyl}-1,2,4-oxadiazol-3-yl)-1-(2,2,2-trifluoroethyl)-1H-indol-4-amine]", "Y220C SC150 (μM)": "** (** = 0.1 μM ≤ SC150 < 0.5 μM)"}, {"compound": "CN1CC[C@@H](Nc2cccc3c2cc(-c2noc(CNC(=O)c4cnc(N5CCOCC5)s4)n2)n3CC(F)(F)F)[C@@H](F)C1", "note": "[Compound 453B, N-{[3-(4-{[(3S,4R)-3-fluoro-1-methylpiperidin-4-yl]amino}-1-(2,2,2-trifluoroethyl)-1H-indol-2-yl)-1,2,4-oxadiazol-5-yl]methyl}-2-(morpholin-4-yl)-1,3-thiazole-5-carboxamide]", "Y220C SC150 (μM)": "* (* = 0 μM ≤ SC150 < 0.1 μM)"}, {"compound": "CN1CC[C@@H](Nc2cccc3c2cc(-c2noc(CNC(=O)c4ccc(N(C)C)cc4)n2)n3CC(F)(F)F)[C@@H](F)C1", "note": "[Compound 220B, 4-(dimethylamino)-N-{[3-(4-{[(3S,4R)-3-fluoro-1-methylpiperidin-4-yl]amino}-1-(2,2,2-trifluoroethyl)-1H-indol-2-yl)-1,2,4-oxadiazol-5-yl]methyl}benzamide]", "Y220C SC150 (μM)": "* (* = 0 μM ≤ SC150 < 0.1 μM)"}, {"compound": "CN1CC[C@@H](Nc2cccc3c2cc(-c2noc(CNC(=O)c4csc(N5CC6(COC6)C5)n4)n2)n3CC(F)(F)F)[C@@H](F)C1", "note": "[Compound 527B, N-{[3-(4-{[(3S,4R)-3-fluoro-1-methylpiperidin-4-yl]amino}-1-(2,2,2-trifluoroethyl)-1H-indol-2-yl)-1,2,4-oxadiazol-5-yl]methyl}-2-{2-oxa-6-azaspiro[3.3]heptan-6-yl}-1,3-thiazole-4-carboxamide]", "Y220C SC150 (μM)": "* (* = 0 μM ≤ SC150 < 0.1 μM)"}, {"compound": "CC(C)(C)n1ccc(C(=O)NCc2nc(-c3cc4c(N[C@@H]5CNCC[C@@H]5F)cccc4n3CC(F)(F)F)no2)c1", "note": "(racemic) [Compound 382B, rac-1-tert-butyl-N-{[3-(4-{[(3R,4S)-4-fluoropiperidin-3-yl]amino}-1-(2,2,2-trifluoroethyl)-1H-indol-2-yl)-1,2,4-oxadiazol-5-yl]methyl}-1H-pyrrole-3-carboxamide]", "Y220C SC150 (μM)": "* (* = 0 μM ≤ SC150 < 0.1 μM)"}, {"compound": "COC(C)(C)c1nc(C(=O)NCc2nc(-c3cc4c(N[C@@H]5CCN(C)C[C@@H]5F)cccc4n3CC(F)(F)F)no2)cs1", "note": "[Compound 530B, N-{[3-(4-{[(3S,4R)-3-fluoro-1-methylpiperidin-4-yl]amino}-1-(2,2,2-trifluoroethyl)-1H-indol-2-yl)-1,2,4-oxadiazol-5-yl]methyl}-2-(2-methoxypropan-2-yl)-1,3-thiazole-4-carboxamide]", "Y220C SC150 (μM)": "* (* = 0 μM ≤ SC150 < 0.1 μM)"}, {"compound": "CN1CC[C@@H](Nc2cccc3c2cc(-c2noc(CNc4ccc(S(C)(=O)=O)cc4)n2)n3CC(F)(F)F)[C@@H](F)C1", "note": "(racemic) [Compound 177B, (+/−)-N-[(3R,4S)-3-fluoro-1-methylpiperidin-4-yl]-2-(5-{[(4-methanesulfonylphenyl)amino]methyl}-1,2,4-oxadiazol-3-yl)-1-(2,2,2-trifluoroethyl)-1H-indol-4-amine]", "Y220C SC150 (μM)": "* (* = 0 μM ≤ SC150 < 0.1 μM)"}, {"compound": "CN1CC[C@@H](Nc2cccc3c2cc(-c2noc(CNC(=O)c4ccn(CC(=O)O)c4)n2)n3CC(F)(F)F)[C@@H](F)C1", "note": "[Compound 238B, 2-[3-({[3-(4-{[(3S,4R)-3-fluoro-1-methylpiperidin-4-yl]amino}-1-(2,2,2-trifluoroethyl)-1H-indol-2-yl)-1,2,4-oxadiazol-5-yl]methyl}carbamoyl)-1H-pyrrol-1-yl]acetic acid]", "Y220C SC150 (μM)": "* (* = 0 μM ≤ SC150 < 0.1 μM)"}, {"compound": "COCC(C)(C)c1cc(C(=O)NCc2nc(-c3cc4c(N[C@@H]5CCOC[C@@H]5F)cccc4n3CC(F)(F)F)no2)cs1", "note": "[Compound 508B, N-{[3-(4-{[(3R,4R)-3-fluorooxan-4-yl]amino}-1-(2,2,2-trifluoroethyl)-1H-indol-2-yl)-1,2,4-oxadiazol-5-yl]methyl}-5-(1-methoxy-2-methylpropan-2-yl)thiophene-3-carboxamide]", "Y220C SC150 (μM)": "* (* = 0 μM ≤ SC150 < 0.1 μM)"}, {"compound": "CN1CC[C@@H](Nc2cccc3c2cc(-c2noc(CNC(=O)c4csc(CN5CCCC5)c4)n2)n3CC(F)(F)F)[C@@H](F)C1", "note": "[Compound 466B]", "Y220C SC150 (μM)": "* (* = 0 μM ≤ SC150 < 0.1 μM)"}, {"compound": "CN1CC[C@@H](Nc2cccc3c2cc(-c2noc(CNC(=O)c4cncn4C(C)(C)C)n2)n3CC(F)(F)F)[C@@H](F)C1", "note": "[Compound 270B, 1-tert-butyl-N-{[3-(4-{[(3S,4R)-3-fluoro-1-methylpiperidin-4-yl]amino}-1-(2,2,2-trifluoroethyl)-1H-indol-2-yl)-1,2,4-oxadiazol-5-yl]methyl}-1H-imidazole-5-carboxamide]", "Y220C SC150 (μM)": "* (* = 0 μM ≤ SC150 < 0.1 μM)"}, {"compound": "CN1CC[C@@H](Nc2cccc3c2cc(-c2noc(CNC(=O)c4csc(C(C)(C)CO)n4)n2)n3CC(F)(F)F)[C@@H](F)C1", "note": "[Compound 532B, N-{[3-(4-{[(3S,4R)-3-fluoro-1-methylpiperidin-4-yl]amino}-1-(2,2,2-trifluoroethyl)-1H-indol-2-yl)-1,2,4-oxadiazol-5-yl]methyl}-2-(1-hydroxy-2-methylpropan-2-yl)-1,3-thiazole-4-carboxamide]", "Y220C SC150 (μM)": "* (* = 0 μM ≤ SC150 < 0.1 μM)"}, {"compound": "CN1CCC(Nc2cccc3c2cc(-c2nnc(CNC(=O)c4ccc5cn[nH]c5c4)s2)n3CC(F)(F)F)CC1", "note": "[Compound 69B, N-[(5-{4-[(1-methylpiperidin-4-yl)amino]-1-(2,2,2-trifluoroethyl)-1H-indol-2-yl}-1,3,4-thiadiazol-2-yl)methyl]-1H-indazole-6-carboxamide]", "Y220C SC150 (μM)": "* (* = 0 μM ≤ SC150 < 0.1 μM)"}, {"compound": "CN1CCN(C[C@@H]2C[C@H]2C(=O)NCc2nc(-c3cc4c(N[C@@H]5CCN(C)C[C@@H]5F)cccc4n3CC(F)(F)F)no2)CC1", "note": "[Compound 234B, (1R,2R)-N-{[3-(4-{[(3S,4R)-3-fluoro-1-methylpiperidin-4-yl]amino}-1-(2,2,2-trifluoroethyl)-1H-indol-2-yl)-1,2,4-oxadiazol-5-yl]methyl}-2-[(4-methylpiperazin-1-yl)methyl]cyclopropane-1-carboxamide]", "Y220C SC150 (μM)": "* (* = 0 μM ≤ SC150 < 0.1 μM)"}, {"compound": "CN(C)CC1(n2ccc(C(=O)NCc3nc(-c4cc5c(N[C@@H]6CCN(C)C[C@@H]6F)cccc5n4CC(F)(F)F)no3)c2)CC1", "note": "[Compound 482B, 1-{1-[(dimethylamino)methyl]cyclopropyl}-N-{[3-(4-{[(3S,4R)-3-fluoro-1-methylpiperidin-4-yl]amino}-1-(2,2,2-trifluoroethyl)-1H-indol-2-yl)-1,2,4-oxadiazol-5-yl]methyl}-1H-pyrrole-3-carboxamide]", "Y220C SC150 (μM)": "* (* = 0 μM ≤ SC150 < 0.1 μM)"}, {"compound": "CN1CCC(Nc2cccc3c2cc(-c2nnc(CNC(=O)c4ccc(CN5CCOCC5)cc4)s2)n3CC(F)(F)F)CC1", "note": "[Compound 45B, N-[(5-{4-[(1-methylpiperidin-4-yl)amino]-1-(2,2,2-trifluoroethyl)-1H-indol-2-yl}-1,3,4-thiadiazol-2-yl)methyl]-4-[(morpholin-4-yl)methyl]benzamide]", "Y220C SC150 (μM)": "* (* = 0 μM ≤ SC150 < 0.1 μM)"}, {"compound": "CC1(n2ccc(C(=O)NCc3nc(-c4cc5c(N[C@H]6CCNC[C@H]6F)cccc5n4CC(F)(F)F)no3)c2)CCOCC1", "note": "[Compound 478B, N-{[3-(4-{[(3R,4S)-3-fluoropiperidin-4-yl]amino}-1-(2,2,2-trifluoroethyl)-1H-indol-2-yl)-1,2,4-oxadiazol-5-yl]methyl}-1-(4-methyloxan-4-yl)-1H-pyrrole-3-carboxamide]", "Y220C SC150 (μM)": "* (* = 0 μM ≤ SC150 < 0.1 μM)"}, {"compound": "CN1CC[C@@H](Nc2cccc3c2cc(-c2noc(CNC(=O)[C@H]4C[C@@H]4c4ccccc4)n2)n3CC(F)(F)F)[C@@H](F)C1", "note": "(racemic) [Compound 180B, (+/−)-(1R,2R)-N-{[3-(4-{[(3R,4S)-3-fluoro-1-methylpiperidin-4-yl]amino}-1-(2,2,2-trifluoroethyl)-1H-indol-2-yl)-1,2,4-oxadiazol-5-yl]methyl}-2-phenylcyclopropane-1-carboxamide]", "Y220C SC150 (μM)": "* (* = 0 μM ≤ SC150 < 0.1 μM)"}, {"compound": "CC(C)n1cc(C(=O)NCc2nc(-c3cc4c(N[C@@H]5CCN(C)C[C@@H]5F)cccc4n3CC(F)(F)F)no2)cn1", "note": "[Compound 255B, N-{[3-(4-{[(3S,4R)-3-fluoro-1-methylpiperidin-4-yl]amino}-1-(2,2,2-trifluoroethyl)-1H-indol-2-yl)-1,2,4-oxadiazol-5-yl]methyl}-1-(propan-2-yl)-1H-pyrazole-4-carboxamide]", "Y220C SC150 (μM)": "* (* = 0 μM ≤ SC150 < 0.1 μM)"}, {"compound": "CN1CC[C@H](Nc2cccc3c2cc(-c2nnc(CNCC4CC4)o2)n3CC(F)(F)F)[C@H](F)C1", "note": "(racemic) [Compound 121B, (+/−)-2-(5-{[(cyclopropylmethyl)amino]methyl}-1,3,4-oxadiazol-2-yl)-N-[(3R,4S)-3-fluoro-1-methylpiperidin-4-yl]-1-(2,2,2-trifluoroethyl)-1H-indol-4-amine]", "Y220C SC150 (μM)": "**** (**** = 1 μM ≤ SC150 < 10 μM)"}, {"compound": "CN1CC[C@@H](Nc2cccc3c2cc(-c2noc(CNC(=O)c4cc5ccccn5n4)n2)n3CC(F)(F)F)[C@@H](F)C1", "note": "[Compound 216B, N-{[3-(4-{[(3S,4R)-3-fluoro-1-methylpiperidin-4-yl]amino}-1-(2,2,2-trifluoroethyl)-1H-indol-2-yl)-1,2,4-oxadiazol-5-yl]methyl}pyrazolo[1,5-a]pyridine-2-carboxamide]", "Y220C SC150 (μM)": "* (* = 0 μM ≤ SC150 < 0.1 μM)"}, {"compound": "CN1CCC(Nc2cccc3c2cc(-c2noc(CNC(=O)c4ccn(C)c4)n2)n3CC(F)(F)F)CC1", "note": "[Compound 152B, 1-methyl-N-[(3-{4-[(1-methylpiperidin-4-yl)amino]-1-(2,2,2-trifluoroethyl)-1H-indol-2-yl}-1,2,4-oxadiazol-5-yl)methyl]-1H-pyrrole-3-carboxamide]", "Y220C SC150 (μM)": "* (* = 0 μM ≤ SC150 < 0.1 μM)"}]}]}
